Read-outs that look alike come from different tables or passages of the source.
What was measured:
[1] = target: T1, TAFIa (Homo sapiens, UniProt Q96IY4); assay: TAFIa inhibition at variable preincubation times; type: biochemical; details: for behaviour of the coefficient of IC50s with increasing pre-incubation time: increasing pre-incubation time (0 to 30 min)
T1 construct: purchased American Diagnostica 874TAFIA
T1 sequence (Q96IY4 115-423): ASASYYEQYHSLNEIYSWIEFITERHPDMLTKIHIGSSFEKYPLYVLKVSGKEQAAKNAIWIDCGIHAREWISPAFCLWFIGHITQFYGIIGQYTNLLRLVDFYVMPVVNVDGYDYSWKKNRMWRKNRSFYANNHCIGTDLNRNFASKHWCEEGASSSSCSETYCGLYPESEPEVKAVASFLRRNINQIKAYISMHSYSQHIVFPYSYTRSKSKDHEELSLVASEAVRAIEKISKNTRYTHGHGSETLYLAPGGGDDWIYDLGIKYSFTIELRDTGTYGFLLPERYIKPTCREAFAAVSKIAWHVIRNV
Method: (§1) The prepared substances were tested for TAFIa inhibition using the Actichrome plasma TAFI Activity Kit from American Diagnostica (Pr. No. 874). This entailed adding 28 μl of assay buffer (20 mM Hepes, 150 mM NaCl, pH 7.4) and 10 μl of TAFIa (American Diagnostica Pr. No. 874TAFIA; 2.5 μg/ml) to 2 μl of 2.5 mM DMSO solution of the substance and incubating in a 96 half-well microtiter plate at room temperature for variable pre-incubation times (0, 5, 15 and 30 minutes). The enzyme reaction was started by adding 10 μl of TAFIa developer (prediluted 1:2 with assay buffer). The time course of the reaction was followed at 420 nm in a microtiter plate reader (SpectraMax plus 384; Molecular Devices) for 15 minutes.
The IC50 values were calculated from the averaged values (duplicate determination) of serial dilutions of the substance with the aid of the Softmax Pro software (version 4.8; Molecular Devices). The coefficient of IC50 values was determined by IC50 value at 0 min over IC50 value at x minutes, wherein x can be 0, 5, 15 or 30 minutes of pre-incubation time.

[2] = target: T1, TAFIa; assay: TAFIa inhibition (Actichrome plasma TAFI Activity Kit, 15 minutes pre-incubation); type: biochemical; details: 15 minutes pre-incubation at room temperature
Method: as §1, with “for” for “for variable pre-incubation times (0, 5,”, “minutes.” for “and 30 minutes).”
The IC50 values were calculated from the averaged values (duplicate determination) of serial dilutions of the substance with the aid of the Softmax Pro software (version 4.8; Molecular Devices).

[3] = example compounds, read-out: IC50

| SMILES | behaviour of the coefficient of IC50s with increasing pre-incubation time [1] | Coefficient of IC50s (IC50 value at 0 min/IC50 value at x min preincubation time) ([1]; pre-incubation time 0 min) | Coefficient of IC50s (IC50 value at 0 min/IC50 value at x min preincubation time) ([1]; pre-incubation time 5 min) | Coefficient of IC50s (IC50 value at 0 min/IC50 value at x min preincubation time) ([1]; pre-incubation time 15 min) | Coefficient of IC50s (IC50 value at 0 min/IC50 value at x min preincubation time) ([1]; pre-incubation time 30 min) | IC50 ([2]; comparison examples according to WO2009146802, read-out: IC50 of Comparison examples) | IC50 [2, 3] |
| --- | --- | --- | --- | --- | --- | --- | --- |
| CC(C)[C@H]1COCCCCOc2ccc(cc2)C[C@@H](NC(=O)N[C@@H](C[C@H]2C[C@H](N)C2)C(=O)O)C(=O)N1 [reference compound] | stays nearly constant in time | 1 | 0.5 | 1.3 | 1 | 4 nM | – |
| CC(C)[C@H]1COCCCCOc2ccc(cc2)C[C@@H](NC(=O)N[C@@](C)(C[C@H]2C[C@H](N)C2)C(=O)O)C(=O)N1 [Example 2, (S)-3-trans-(3-Amino-cyclobutyl)-2-[3-((9S,12R)-9-isopropyl-11-oxo-2,7-dioxa-10-aza-bicyclo[12.2.2]octadeca-1(17),14(18),15-trien-12-yl)-ureido]-2-methyl-propionic acid] | increases | 1 | 2.9 | 5.8 | 7.7 | – | 0.3 nM |
| CC(C)[C@H]1COCCCCOc2ccc(cc2)C[C@@H](NC(=O)N[C@@](C)(C[C@@H]2CC[C@@H](N)C2)C(=O)O)C(=O)N1 [Example 3, (S)-3-((1R,3R)-3-Amino-cyclopentyl)-2-[3-((9S,12R)-9-isopropyl-11-oxo-2,7-dioxa-10-aza-bicyclo[12.2.2]octadeca-1(17),14(18),15-trien-12-yl)-ureido]-2-methyl-propionic acid] | – | – | – | – | – | – | 1 nM |
| CC(C)[C@H]1COCCCCOc2ccc(cc2)C[C@@H](NC(=O)N[C@@](C)(Cc2ccc(N)nc2)C(=O)O)C(=O)N1 [Example 1, (S)-3-(6-Amino-pyridin-3-yl)-2-[3-((9S,12R)-9-isopropyl-11-oxo-2,7-dioxa-10-aza-bicyclo[12.2.2]octadeca-1(17),14(18),15-trien-12-yl)-ureido]-2-methyl-propionic acid] | – | – | – | – | – | – | 0.3 nM |
| CC(C)[C@H]1COCCCCOC[C@@H](NC(=O)N[C@@](C)(Cc2ccc(N)nc2)C(=O)O)C(=O)N1 [Example 4, (S)-3-(6-Amino-pyridin-3-yl)-2-[3-((3S,6R)-3-isopropyl-5-oxo-1,8-dioxa-4-aza-cyclododec-6-yl)-ureido]-2-methyl-propionic acid] | – | – | – | – | – | – | 1 nM |
